Results published in PMC10945559, “Forgotten Natural Products: Semisynthetic Development of Blasticidin S As an Antibiotic Lead” (ACS Medicinal Chemistry Letters, 2024).
Values after ≈ are worked out from the molar mass of the structure shown. Read-outs that look alike come from different tables or passages of the source.

Assays:
in vitro = format: cell-based, human; details: human; MRC-5 (lung fibroblast); 24 h; one biological replicate (n = 3); read-out: CC50 for human cells
Protocol: (§1) as a range from biological replicates. Inhibition curves were generated using Prism (GraphPad).
(§2) The IC50 values reported in Table 2 are the average of the two biological replicates ± standard […]
(§3) Cytotoxicity Assay Procedure
(§4) Human lung fibroblast cells, MRC -5 (CCL-171), were cultured at 37℃ with 5% CO2 and were plated at 5000 cells/well in a 96 -well plate. Compounds 1, 2, and 15-22 were initially prepared at concentrations of 5.12 mg/mL in a vehicle of 50% DMSO. Dilutions of the compounds (4 – 512 μg/mL) were then prepared in growth medium containing Dulbecco’s modified Eagle’s medium (DMEM) with high glucose, L -glutamine, and sodium pyruvate supplemented with 10% fetal bovine serum (FBS), 1% non -essential amino acids, and 0.1% gentamicin sulfate, and 25mM HEPES. The vehicle (50% DMSO) was also prepared via the sa me dilution series to serve as a control. Growth media was removed from the cells and replaced with the same volume of each compound dilution. Cells were incubated for 24 h , after which CellTiter 96® AQueous One Solution Reagent was added to each well as recommended by the manufacturer’s protocol (Promega CellTiter 96 AQueous One Solution Cell Proliferation Assay) and further incubated for 4 h. After incubation, absorbance was measured at 490 nm on an Infinite M plex multimode microplate reader with i -control Tecan software. Viability was calculated by subtracting media only absorbance values and normalizing to the vehicle control at each concentration. The presented data is one assay performed in triplicate that is representative of multiple trials. Data for the 256 and 512 μg/mL concentrations were removed from analysis due to vehicle toxicity […]
(§5) CC50 concentrations were determined via the ED50 Plus v1.0 software (https://archive.org/details/ed50v10_zip).
Figure S41. The effect of compounds on cell viability. The lines represent non -linear regression curves, and error bars represent means ± […]
SD (n=3). […]

Pseudomonas aeruginosa = assay: Broth microdilution antibacterial assay; format: cell-based; details: for Selectivity index (CC50/IC50): MRC-5 CC50 / P. aeruginosa IC50; for MIC / IC50: Pseudomonas aeruginosa; for IC50: average of two biological replicates ± S.D., read-out: IC50
Protocol: (§6) Antibacterial Assay Procedure
(§7) Broth Microdilution Assays
(§8) Media and solutions were autoclaved or sterile filtered prior to use and manipulations were carried out in a laminar flow hood. Antibacterial testing was performed in polypropylene 96 -well flat bottom plates. The minimal inhibitory concentration of blasticidin S ( 1) hydrochloride, P10 (2), and derivatives 15–22 were assessed against Staphylococcus aureus ΔNorA, S. aureus 8810, methicillin-resistant S. aureus (MRSA) ATCC 43300, Enterococcus faecalis ATCC 29212, vancomycin-resistant Enterococcus, Klebsiella pneumoniae ATCC 29665, Pseudomonas aeruginosa, and Acinetobacter baumannii ATCC 17978 using serial dilutions. Doxycycline (Gold Bio) as a positive control and the vehicle as a negative control. Stock solutions of each compound were prepared at 5.12 mg/mL in 50% DMSO/water and serially diluted in 50% DMSO/water to create master plates. From the master plates, 10 μL of each dilution was applied to test plates using a Bravo automated liquid transfer system (Agilent). Bacteria previously grown overnight (37 °C, 120 – 200 RPM), in LB broth were diluted to an OD600 of 0.0 5 in cation-adjusted Mueller-Hinton broth, grown to an OD600 of ~0.5, and diluted to an OD600 of 0.004 in cation-adjusted Mueller-Hinton broth. These diluted cultures were applied to the test plates (190 μL per test well) resulting in final concentrations of the test compounds of 256–2 μg/mL. Growth controls (wells with inoculated media but no vehicle or test compounds) were included to assess any potential toxicity from the vehicle. The plates were incubated at 37 °C for 16–18 h, except for VRE and E. faecalis, which were incubated at 37 °C for 24 h. Inhibition was determined by measuring the optical density at 600 nm (OD600) with a Cytation 3 plate reader (BioTek). The optical density measurements were normalized to the positive and negative controls and the vehicle and growth controls were compared and found to be indistinguishable, indicating no toxicity from the vehicle used. The MIC was the lowest concentration that inhibited >90% of growth. Two biological replicates were performed in duplicate. MIC values are reported […]
as §1, §2, §3, §4, §5

[1] = test system: Klebsiella pneumoniae ATCC 29665; assay: Broth microdilution antibacterial assay; format: cell-based; details: for IC50 / MIC: Klebsiella pneumoniae, ATCC29665, K. pneumoniae; for IC50: average of two biological replicates ± S.D., read-out: IC50; for MIC: lowest concentration inhibiting >90% of growth, range from biological replicates, read-out: MIC; for Selectivity index (CC50/IC50): MRC-5 CC50 / K. pneumoniae IC50
Protocol: as §6, §7, §8, §1, §2, §3, §4, §5

[2] = test system: Staphylococcus aureus ΔNorA; assay: Broth microdilution antibacterial assay; format: cell-based; details: for Selectivity index (CC50/IC50): MRC-5 CC50 / S. aureus ΔNorA IC50; for IC50 / MIC: Staphylococcus aureus
Protocol: as §6, §7, §8, §1, §2, §3, §4, §5

[3] = test system: Enterococcus faecalis ATCC 29212; assay: Broth microdilution antibacterial assay; format: cell-based; details: for MIC / IC50: Enterococcus faecalis, ATCC29212; for IC50: average of two biological replicates ± S.D. (18: one biological replicate), read-out: IC50; for Selectivity index (CC50/IC50): MRC-5 CC50 / E. faecalis IC50
Protocol: as §6, §7, §8, §1, §2, §3, §4, §5

[4] = test system: vancomycin-resistant Enterococcus (VRE); assay: Broth microdilution antibacterial assay; format: cell-based; details: for MIC / IC50: Enterococcus, VRE; for IC50: average of two biological replicates ± S.D., read-out: IC50; for Selectivity index (CC50/IC50): MRC-5 CC50 / VRE IC50
Protocol: as §6, §7, §8, §1, §2, §3, §4, §5

[5] = test system: Acinetobacter baumannii ATCC 17978; assay: Broth microdilution antibacterial assay; format: cell-based; details: for IC50 / MIC: Acinetobacter baumannii, ATCC17978, A. baumannii; for IC50: average of two biological replicates ± S.D., read-out: IC50; for MIC: lowest concentration inhibiting >90% of growth, range from biological replicates, read-out: MIC; for Selectivity index (CC50/IC50): MRC-5 CC50 / A. baumannii IC50
Protocol: as §6, §7, §8, §1, §2, §3, §4, §5

[6] = test system: methicillin-resistant S. aureus (MRSA) ATCC 43300; assay: Broth microdilution antibacterial assay; format: cell-based, Staphylococcus aureus; details: for Selectivity index (CC50/IC50): MRC-5 CC50 / MRSA IC50; for IC50 / MIC: Staphylococcus aureus; for IC50: average of two biological replicates ± S.D., read-out: IC50
Protocol: as §6, §7, §8, §1, §2, §3, §4, §5

S. aureus 8810 = assay: Broth microdilution antibacterial assay; format: cell-based, Staphylococcus aureus; details: for Selectivity index (CC50/IC50): MRC-5 CC50 / S. aureus IC50; for IC50 / MIC: Staphylococcus aureus, 8810; for IC50: average of two biological replicates ± S.D., read-out: IC50
Protocol: as §6, §7, §8, §1, §2, §3, §4, §5

[7] = E. faecalis, 24 h, lowest concentration inhibiting >90% of growth, range from biological replicates, read-out: MIC
[8] = average MIC, Table S3, read-out: Average Activity against E. faecalis
[9] = average MIC, Table S3, read-out: Average Activity against VRE
[10] = 24 h, lowest concentration inhibiting >90% of growth, range from biological replicates, read-out: MIC
[11] = MRSA, lowest concentration inhibiting >90% of growth, range from biological replicates, read-out: MIC
[12] = average MIC, Table S3, read-out: Average Activity against MRSA
[13] = S. aureus, lowest concentration inhibiting >90% of growth, range from biological replicates, read-out: MIC
[14] = average MIC, Table S3, read-out: Average Activity against S. aureus

SMILES	CC50 at 24 h (in vitro) [µg/mL]	Selectivity index (CC50/IC50) (Pseudomonas aeruginosa)	IC50 (Pseudomonas aeruginosa; P. aeruginosa) [µg/mL]	IC50 [1] [µg/mL]	MIC [1] [µg/mL]	Selectivity index (CC50/IC50) [1]	Selectivity index (CC50/IC50) [2]	IC50 [2] [µg/mL]	MIC [2] [µg/mL]	MIC [3, 7] [µg/mL]	IC50 ([3]; E. faecalis) [µg/mL]	MIC [3, 8] [µg/mL]	Selectivity index (CC50/IC50) [3]	MIC [4, 9] [µg/mL]	MIC [4, 10] [µg/mL]	IC50 [4] [µg/mL]	Selectivity index (CC50/IC50) [4]	IC50 [5] [µg/mL]	MIC [5] [µg/mL]	Selectivity index (CC50/IC50) [5]	further results
CNC(=O)[C@H]1O[C@@H](n2ccc(N)nc2=O)C=C[C@@H]1NC(=O)C[C@@H](N)CCN(C)C(=N)N [Compound 15, Methyl amide]	52.8 (≈ 121 µM)	2.6	20.2 ± 3.4 (≈ 46.4 µM)	26.4 ± 4.1 (≈ 60.6 µM)	64 (≈ 147 µM)	2.0	2.5	21.1 ± 0.4 (≈ 48.5 µM)	128 (≈ 294 µM)	16 to 32 (≈ 36.7 to 73.5 µM)	13.2 ± 3.6 (≈ 30.3 µM)	32 (≈ 73.5 µM)	4.0	32 (≈ 73.5 µM)	32 (≈ 73.5 µM)	13.5 ± 3.6 (≈ 31 µM)	3.9	18.3 ± 5.3 (≈ 42 µM)	64 (≈ 147 µM)	2.9	MIC (Pseudomonas aeruginosa): 64 to 128 µg/mL (≈ 147 to 294 µM); Selectivity index (CC50/IC50) [6]: 4.0; IC50 ([6]; MRSA): 13.3 ± 3.3 µg/mL (≈ 30.5 µM); MIC [6, 11]: 32 to 64 µg/mL (≈ 73.5 to 147 µM); MIC [6, 12]: 48 µg/mL (≈ 110 µM); Selectivity index (CC50/IC50) (S. aureus 8810): 8.9; IC50 (S. aureus 8810; S. aureus): 5.9 ± 1.2 µg/mL (≈ 13.5 µM); MIC (S. aureus 8810; [13]): 32 µg/mL (≈ 73.5 µM); MIC (S. aureus 8810; [14]): 32 µg/mL (≈ 73.5 µM)
C#CCCNC(=O)[C@H]1O[C@@H](n2ccc(N)nc2=O)C=C[C@@H]1NC(=O)C[C@@H](N)CCN(C)C(=N)N [Compound 20]	65.9 (≈ 139 µM)	3.3	20.2 ± 1.3 (≈ 42.7 µM)	30.7 ± 5.3 (≈ 64.8 µM)	128 (≈ 270 µM)	2.2	4.3	15.2 ± 2.1 (≈ 32.1 µM)	64 (≈ 135 µM)	16 to 32 (≈ 33.8 to 67.6 µM)	11.1 ± 4.1 (≈ 23.4 µM)	16 (≈ 33.8 µM)	5.9	64 (≈ 135 µM)	64 (≈ 135 µM)	22.1 ± 12 (≈ 46.7 µM)	3.0	24.3 ± 3.2 (≈ 51.3 µM)	128 (≈ 270 µM)	2.7	MIC (Pseudomonas aeruginosa; P. aeruginosa, lowest concentration inhibiting >90% of growth, range from biological replicates, read-out: MIC): 64 µg/mL (≈ 135 µM); Selectivity index (CC50/IC50) [6]: 9.1; IC50 ([6]; MRSA): 7.2 ± 2.3 µg/mL (≈ 15.2 µM); MIC [6, 11]: 32 µg/mL (≈ 67.6 µM); MIC [6, 12]: 32 µg/mL (≈ 67.6 µM); Selectivity index (CC50/IC50) (S. aureus 8810): 26; IC50 (S. aureus 8810; S. aureus): 2.5 ± 0.2 µg/mL (≈ 5.28 µM); MIC (S. aureus 8810; [13]): 16 µg/mL (≈ 33.8 µM); MIC (S. aureus 8810; [14]): 16 µg/mL (≈ 33.8 µM)
